Data set [1] deals with HeLa Control cells. To be noted: cited from earlier work.
Data set [2] relates to OATP1B1-expressing HeLa cells. To be noted: cited from earlier work.
The test system of data set [3] is OATP1B3-expressing HeLa cells. To be noted: cited from earlier work.
Data set [4] has as its system HeLa Control cells. To be noted: 24 h.
In data set [5] the test system is OATP1B3-expressing HeLa cells. Conditions: for pIC50: human.
The test system of data set [6] is OATP1B1- and OATP1B3-expressing HeLa or RKO cell lines.
Data set [7] has as its system OATP1B1. Put plainly: in vitro. To be noted: human.
Data set [8] has as its system RKO control cells. Conditions: 3 h.
In data set [9] the test system is OATP1B3-expressing RKO cells. Conditions: for pIC50: human.
Data set [10] concerns OATP1B1. Description: in vitro. To be noted: human. This is another data set of the same source.
Data set [11] relates to PP2A. Conditions: cited from earlier work.

pIC50: −log10 of the molar value. Where two headings read alike, the source gives them in different places. Numbered stars: 1 amine (or outer) side, 2 acyl side, 3 side chain; on linkers, the order of the positions; unused ones are H or OH. Bridge positions count the residues as written; N and C are the ends. Square brackets hold non-standard residues; d marks the D form. Peptide text beside a SMILES is read from it. Adda = CO[C@@H](Cc1ccccc1)[C@@H](C)/C=C(C)/C=C/[C@H](N[*:1])[C@H](C)C(=O)[*:2]; dAsp(3S-Me) = C[C@H](C(=O)[*:3])[C@@H](N[*:1])C(=O)[*:2]; d(γGlu) = O=C(O)[C@@H](CCC(=O)[*:2])N[*:1]; NMeDha = C=C(NC)C(=O)O

As usually defined, the pIC50 is −log10 of the IC50, conventionally taken in molar units. With `C=C1[C@@H](O)[C@@H]2O[C@]3(CC[C@H](/C=C/[C@@H](C)[C@@H]4CC(C)=C[C@@]5(O[C@H](C[C@@](C)(O)C(=O)O)CC[C@H]5O)O4)O3)CC[C@H]2O[C@@H]1[C@@H](O)C[C@H](C)[C@H]1O[C@@]2(CCCCO2)CC[C@H]1C` [compound 24, okadaic acid], the pIC50 in data set [1] is 8.11; in [2], 8.66; in [3], 8.52. In addition, in data set [3], the “Ratio IC50 B1/B3 HeLa” value was 0.7.
For the compound `C/C=C1/NC(=O)CC[C@H](C(=O)O)NC(=O)[C@@H](C)[C@H](/C=C/C(C)=C/[C@H](C)[C@H](Cc2ccccc2)OC)NC(=O)[C@H](CCc2ccc(O)cc2)NC(=O)C[C@H](C(=O)O)NC(=O)[C@H](CCc2ccc(O)cc2)NC(=O)[C@@H](C)NC1=O` [compound 19, [D-Asp^3,(E)-Dhb^7]MC-HtyHty], the pIC50 is below 8.00 in [4], 9.74 in data set [5] and 9.41 in data set [7]. In data set [5], the “Ratio IC50 B1/B3 HeLa” value is given as 2.2. In addition, the “IC50 values (potency grouping)” value in data set [6] was “sub-nanomolar”.
For `C/C=C1/NC(=O)CC[C@H](C(=O)O)NC(=O)[C@@H](C)[C@H](/C=C/C(C)=C/[C@H](C)[C@H](Cc2ccccc2)OC)NC(=O)[C@H](CCCNC(=N)N)NC(=O)C[C@H](C(=O)O)NC(=O)[C@H](CC(C)CC)NC(=O)[C@@H](C)NC1=O` (stereo partly drawn) [compound 4, [D-Asp^3,(E)-Dhb^7]MC-HilR], the values for the pIC50 in [8], in [9] and in [10] were 6.00, 8.42 and 7.24, respectively. The “Ratio IC50 B1/B3 RKO” value in [9] stood at 15.0. In addition, the “transporter selectivity (in words)” value in data set [6] is reported as “most OATP1B3 selective”.
On to `C=C1C(=O)N[C@H](C)C(=O)N[C@@H](CCCNC(=N)N)C(=O)N[C@@H](C(=O)O)[C@H](C)C(=O)N[C@@H](CCCNC(=N)N)C(=O)N[C@@H](/C=C/C(C)=C/[C@H](C)[C@H](Cc2ccccc2)OC)[C@H](C)C(=O)N[C@@H](C(=O)O)CCC(=O)N1C` [compound 10, RR] (R[Adda][d(γGlu)][NMeDha][dA]R[dAsp(3S-Me)]-OH; lactam N-7), for which the “toxicity in the present assay compared with 1 (times lower)” value in data set [6] is “about 500 times”. In addition, the “transporter selectivity (in words)” value in [6] was “most OATP1B3 selective”. For the same compound, the negative logarithm of the IC50 (pIC50) in data set [6] (read-out: IC50 values (potency grouping)) was below 7.00; in data set [1] it was below 5.00; in data set [2] (read-out: IC50 HeLa B1) it was 5.42; in data set [3] (read-out: IC50 HeLa B3), 6.24. Also, in [11], the “PP2A inhibition compared with 1” value was “about twenty times weaker”. The “Ratio IC50 B1/B3 HeLa” value in data set [3] is 6.6.
Consider `CO[C@@H](Cc1ccccc1)[C@@H](C)/C=C(C)/C=C/[C@@H]1NC(=O)[C@H](CCCCNC(=N)N)NC(=O)C[C@H](C(=O)O)NC(=O)[C@H](Cc2ccc(O)cc2)NC(=O)[C@@H](C)NC(=O)[C@H](CO)N(C)C(=O)CC[C@H](C(=O)O)NC(=O)[C@H]1C` [compound 21, [D-Asp^3,MSer^7]MC-YHar], for which the pIC50 in [8] is below 6.00; in data set [9], 6.41; in [6] (human), below 7.00; in data set [10] it was 6.20. Also, the “Ratio IC50 B1/B3 RKO” value in [9] worked out at 1.6.
In the case of `C/C=C1/NC(=O)CC[C@H](C(=O)O)NC(=O)[C@@H](C)[C@H](/C=C/C(C)=C/[C@H](C)[C@H](Cc2ccccc2)OC)NC(=O)[C@H](Cc2ccc(O)cc2)NC(=O)C[C@H](C(=O)O)NC(=O)[C@H](CCc2ccc(O)cc2)NC(=O)[C@@H](C)NC1=O` [compound 18, [D-Asp^3,(E)-Dhb^7]MC-HtyY], the negative-log IC50 (pIC50) in [4] was below 8.00. For the same compound, in data set [5], the “Ratio IC50 B1/B3 HeLa” value was 6.6 and the pIC50 was 10.11. Besides, in data set [6], the “IC50 values (potency grouping)” value is “sub-nanomolar” and the “transporter selectivity (in words)” value is given as “most OATP1B3 selective”. Also, the pIC50 in data set [7] is 9.29.

The values are drawn from paper PMC3948918 (PLoS ONE, 2014).
